Reference: patent publication US20260285850A1, “SUBSTITUTED OXAZOLIDINONES AND IMIDAZOLINONES AS HERBICIDES” (FMC CORPORATION, priority 2023, published 2026)

Tests used:
Assay type in all cases: in vivo
[1] = system: green foxtail (Setaria viridis); assay: Test A postemergence application, visual injury rating 0-100
Procedure, shortened: (§1)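 Visual injury ratings (0, no effect; 100, complete control) were assigned relative to untreated plants 10 days after treatment. Test chemicals, formulated with a surfactant-containing non-phytotoxic solvent, were applied in loam-sand soil either as a directed soil spray before emergence or to emerged plants, and plants were kept in a greenhouse.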

[2] = system: corn (Zea mays); assay: as above
Procedure, shortened: as §1

[3] = system: ryegrass, Italian (italian ryegrass, Lolium multiflorum); assay: as above
Procedure, shortened: as §1

[4] = system: palmer (palmer amaranth, palmer pigweed, Amaranthus palmeri); assay: as above
Procedure, shortened: as §1

[5] = system: ragweed (common ragweed, Ambrosia artemisiifolia); assay: as above
Procedure, shortened: as §1

[6] = system: barnyardgrass (Echinochloa crus-galli); assay: as above
Procedure, shortened: as §1

[7] = system: wheat (Triticum aestivum); assay: as above
Procedure, shortened: as §1

[8] = system: oat, wild (wild oat, Avena fatua); assay: as above
Procedure, shortened: as §1

[9] = system: horseweed (Erigeron canadensis); assay: as above
Procedure, shortened: as §1

[10] = system: blackgrass (Alopecurus myosuroides); assay: as above
Procedure, shortened: as §1

[11] = system: kochia (Bassia scoparia); assay: as above
Procedure, shortened: as §1

[12] = system: galium (catchweed bedstraw, Galium aparine); assay: as above
Procedure, shortened: as §1

[13] = system: soybean (Glycine max); assay: as above
Procedure, shortened: as §1

[14] = system: barnyardgrass (Echinochloa crusgalli); assay: Test B flooded paddy test, visual plant response rating 0-100; settings: 250 g ai/ha, Flood, applied to paddy water, evaluated after 13 days
Procedure, shortened: (§2)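 Visual scores versus untreated controls were recorded 13 days after treatment of greenhouse-held plants. At the 2-leaf stage, pots were flooded 3 cm above the soil surface and compounds added straight to the water.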

[15] = system: ducksalad (Heteranthera limosa); assay: as above; settings: 250 g ai/ha, Flood, applied to paddy water, evaluated after 13 days
Procedure, shortened: as §2

[16] = system: sedge, umbrella (small-flower umbrella sedge, Cyperus difformis); assay: as above; settings: 250 g ai/ha, Flood, applied to paddy water, evaluated after 13 days
Procedure, shortened: as §2

[17] = system: rice (Oryza sativa); assay: as above; settings: 250 g ai/ha, Flood, applied to paddy water, evaluated after 13 days
Procedure, shortened: as §2

[18] = system: green foxtail (Setaria viridis); assay: Test A preemergence soil spray, visual injury rating 0-100; settings: 10 days
Procedure, shortened: as §1

[19] = system: corn (Zea mays); assay: as above; settings: 10 days
Procedure, shortened: as §1

[20] = system: ryegrass, Italian (italian ryegrass, Lolium multiflorum); assay: as above; settings: 10 days
Procedure, shortened: as §1

[21] = system: palmer (palmer amaranth, palmer pigweed, Amaranthus palmeri); assay: as above; settings: 10 days
Procedure, shortened: as §1

[22] = system: ragweed (common ragweed, Ambrosia artemisiifolia); assay: as above; settings: 10 days
Procedure, shortened: as §1

[23] = system: barnyardgrass (Echinochloa crus-galli); assay: as above; settings: 10 days
Procedure, shortened: as §1

[24] = system: wheat (Triticum aestivum); assay: as above; settings: 10 days
Procedure, shortened: as §1

[25] = system: oat, wild (wild oat, Avena fatua); assay: as above; settings: 10 days
Procedure, shortened: as §1

[26] = system: blackgrass (Alopecurus myosuroides); assay: as above; settings: 10 days
Procedure, shortened: as §1

[27] = system: kochia (Bassia scoparia); assay: as above; settings: 10 days
Procedure, shortened: as §1

[28] = system: soybean (Glycine max); assay: as above; settings: 10 days
Procedure, shortened: as §1

[29] = 62 g ai/ha, postemergence, 10 days, 0 = no effect, 100 = complete control
[30] = Postemergence, 16 g ai/ha, greenhouse 10 days, 0 no effect, 100 complete control
[31] = 62 g ai/ha, 0 = no effect, 100 = complete control

CC1(C(=O)NC2CC(C(=O)O)C2)CN(c2cc(F)cc(F)c2)C(=O)O1 (stereo not shown) [Compound 119]
10: Kochia plant response rating (0 to 100 scale) [11, 30] | Pigweed, Palmer plant response rating ([21]; 16 g ai/ha, 0 to 100 scale) | Pigweed, Palmer plant response rating (0-100) [21, 31] | Wheat plant response rating ([24]; 16 g ai/ha, 0 to 100 scale)
0: Ryegrass, Italian plant response rating (0 to 100 scale) [3, 30] | Ragweed plant response rating (0 to 100 scale) [5, 30] | Horseweed plant response rating (0-100) [9, 29] | Horseweed plant response rating (0 to 100 scale) [9, 30] | Plant response rating, Barnyardgrass (0 to 100 scale, 0 is no effect and 100 is complete control) [14] | Plant response rating, Ducksalad (0 to 100 scale, 0 is no effect and 100 is complete control) [15] | Plant response rating, Sedge, Umbrella (0 to 100 scale, 0 is no effect and 100 is complete control) [16] | Plant response rating, Rice (0 to 100 scale, 0 is no effect and 100 is complete control) [17] | Ragweed plant response rating ([22]; 16 g ai/ha, 0 to 100 scale) | Ragweed plant response rating (0-100) [22, 31] | Barnyardgrass plant response rating ([23]; 16 g ai/ha, 0 to 100 scale) | Kochia plant response rating ([27]; 16 g ai/ha, 0 to 100 scale) | Soybean plant response rating ([28]; 16 g ai/ha, 0 to 100 scale)
90: Foxtail, Green plant response rating (0-100) [1, 29] | Wheat plant response rating (0-100) [7, 29] | Oat, Wild plant response rating (0-100) [8, 29] | Foxtail, Green plant response rating (0-100) [18, 31] | Oat, Wild plant response rating ([25]; 16 g ai/ha, 0 to 100 scale) | Oat, Wild plant response rating (0-100) [25, 31]
30: Ryegrass, Italian plant response rating ([20]; 16 g ai/ha, 0 to 100 scale)
100: Corn plant response rating (0-100) [2, 29] | Corn plant response rating (0 to 100 scale) [2, 30] | Barnyardgrass plant response rating (0-100) [6, 29] | Blackgrass plant response rating (0-100) [10, 29]
60: Ryegrass, Italian plant response rating (0-100) [3, 29] | Galium plant response rating (0-100) [12, 29] | Wheat plant response rating (0-100) [24, 31]
70: Foxtail, Green plant response rating (0 to 100 scale) [1, 30] | Barnyardgrass plant response rating (0 to 100 scale) [6, 30] | Corn plant response rating (0-100) [19, 31]
40: Oat, Wild plant response rating (0 to 100 scale) [8, 30] | Blackgrass plant response rating ([26]; 16 g ai/ha, 0 to 100 scale)
50: Pigweed, Palmer plant response rating (0-100) [4, 29] | Soybean plant response rating (0 to 100 scale) [13, 30]
80: Wheat plant response rating (0 to 100 scale) [7, 30] | Blackgrass plant response rating (0 to 100 scale) [10, 30] | Kochia plant response rating (0-100) [11, 29] | Soybean plant response rating (0-100) [13, 29] | Ryegrass, Italian plant response rating (0-100) [20, 31] | Barnyardgrass plant response rating (0-100) [23, 31] | Blackgrass plant response rating (0-100) [26, 31] | Kochia plant response rating (0-100) [27, 31]
20: Pigweed, Palmer plant response rating (0 to 100 scale) [4, 30] | Ragweed plant response rating (0-100) [5, 29] | Galium plant response rating (0 to 100 scale) [12, 30] | Foxtail, Green plant response rating ([18]; 16 g ai/ha, 0 to 100 scale) | Corn plant response rating ([19]; 16 g ai/ha, 0 to 100 scale) | Soybean plant response rating (0-100) [28, 31]
